According to a melting point compilation (Tetko et al.; mined from patent text by program, amines drawn as free bases though some values may be those of a salt):

SMILES | melting point [°C]
O=C1N(Cc2ccccc2)OCCN1c1ccc(Cl)c(Cl)c1 | 76
O=[N+]([O-])c1cc(Cl)c2c(c1)C(F)(F)C(F)(F)S2 | 61.5 to 62
CNC1CN(c2cc3c(cc2F)c(=O)c(C(=O)O)cn3C2CC2)C1 | 245 to 249
OCC1C=CC(n2cnc3cc(Cl)c(Cl)cc32)C1 (stereo unspecified) | 166 to 169
CCOCc1nc2cnc(C)c(C)c2n1NC1CCOCC1 | 94 to 97
CC(C)Cn1c(CONC(=O)NC(C)C)nc2c(N)nc3ccccc3c21 | 218 to 219
CC1(C)Cc2c(N)c(Cl)cc(C(=O)NC3CCN(CCNc4nc(O)c5cc(Cl)ccc5n4)CC3)c2O1 | 207
CCCCNc1c(C(=O)OCC)c(C)nc2c1nnn2CC | 42 to 43
CC1Cc2ccccc2C(=O)C1n1ccnc1 (stereo unspecified) | 153 to 155
COc1ccc(C2(C)C(=O)Nc3cc(Cl)cc(Cl)c3C2=O)cc1[N+](=O)[O-] (stereo unspecified) | 255 to 256
CCNC(=O)CN(C)C(=O)[C@H](C)NC(=O)CC | 149 to 151
O=C(Cc1ccc2ccccc2c1OCC1CO1)NCCO[N+](=O)[O-] (stereo unspecified) | 67 to 71
CC(C)Cn1cnc2c(N)nc3cccc(-c4ccccc4)c3c21 | 263 to 265
Cc1c(SCCCSc2nnnn2CC(=O)O)ccnc1CSc1ccncc1 | 185 to 187
CCC(O)(C(=O)c1ccccc1)c1ccccc1 (stereo unspecified) | 62 to 68
Cc1oc(-c2ccccc2)nc1COc1ccc(COc2cccc(CCC(=O)O)c2)cc1 | 157 to 158
COc1ccc(S(=O)(=O)N(CC(N)=O)c2c(CCc3ccccc3)cccc2OC)cc1OC | 244
CC(c1cc(F)cc(Br)c1O)c1cc(Cl)cc(C(C)c2cc(F)cc(Br)c2O)c1O (stereo unspecified) | 136
CCCc1ccccc1OCCCOc1ccc2c(c1CCC)OC(CCC(=O)O)(CCC(=O)O)CC2=O | 163 to 165
O=C(Cc1cccnc1)c1ccc(Oc2ccccc2)cc1 | 81 to 83
CCCC(=O)Nc1nn(COCC[Si](C)(C)C)c2cc(-c3ccc(SC)cc3)ccc12 | 225
CC(C(=O)c1ccc(OC2CCCCO2)cc1)c1ccccc1 (stereo unspecified) | 94 to 96
Cc1cc(-c2cnn3c(C(F)(F)F)cc(-c4ccc(C)c(C(F)(F)F)c4)nc23)cc(C)n1 | 258
CC(C)(CCl)c1cc(Cl)nnc1Cl | 66.5 to 68.5
O=c1[nH]c2c(Cl)cc(Cl)cc2c2nc(-c3ccccc3)nn12 | 309 to 311
CCCc1cc(Cl)c2oc(C(=O)OCC)c(C)c2c1O | 165 to 166

SMILES | melting point [°C]
CN(CCCCCCCNC(=O)NCCSCc1csc(NC(=N)N)n1)CCN(Cc1ccc(F)cc1)c1ccccn1 | 125
C#CCN(C)c1c(-c2c(F)cc(F)cc2F)c(C#N)nc2ncnn12 | 147
CCCN1C(=O)COc2ccc(N3C(=O)C(C)=C(C)C3=O)cc21 | 147 to 149
O=C(O)c1cc(Cl)nn1-c1ncccc1Cl | 198 to 199
Cc1cc(C(=O)CCCC(=O)c2cc(C)c(O)c(C(C)(C)C)c2)cc(C(C)(C)C)c1O | 156 to 158
CC(=O)c1cc2c(cc1C)C(C)(C)CCC2(C)C | 54 to 57
Cc1c(Cl)cc(C#N)n1CCC(C)NC(=O)C(C#N)C(C)C(C)(C)C (stereo unspecified) | 111 to 118
CC(C)(C)OC(=O)NCCCn1cnc2c(N)nc3ccccc3c21 | 196 to 198
CCCOc1ccc(Br)c(C(=O)C=Cc2ccc3c(c2)OCO3)c1 | 80 to 82
CN1CCC(=C2c3ccsc3C(=O)Cn3ccnc32)CC1 | 153
CCN(CC)CCOc1ccc(Nc2ncc3c(n2)N(C)C(=O)N(c2c(Cl)cc(Cl)cc2Cl)C3)cc1 | 142
Cc1ccc(CC(CC(=O)Oc2ccc([N+](=O)[O-])cc2)C(=O)Oc2ccc([N+](=O)[O-])cc2)cc1 (stereo unspecified) | 97 to 98
CCOC(=O)C1(c2cccc(OCc3ccc4c(ccc(=O)n4C)c3)c2)CCOCC1 | 109 to 110
CCCc1ccc(-c2c(-c3ccc(S(C)(=O)=O)cc3)cnn(CC(F)(F)F)c2=O)cc1 | 64 to 66
O=C(CCl)Nc1ccc(C(O)(C(F)(F)F)C(F)(F)F)cc1O | 218 to 219
Oc1cccc2oc(Cc3cccc(C(F)(F)F)c3)nc12 | 157 to 158
CCNC(=O)c1cnc(SC)nc1Nc1ccc2[nH]ncc2c1 | 252 to 254
Cc1cccc(NC(=O)NCC(=O)N(c2ccccc2)c2ccccc2)c1 | 240
CC(C)CCCC(C)CCOc1ccc2c(c1)[nH]c1ccccc12 (stereo unspecified) | 188
COc1ccc(C(N)=S)c(OC)c1 | 115 to 118
CN(C)C(=O)CC1(C)OCCC2=C1c1ccccc1C2 (stereo unspecified) | 112 to 114
Cc1c(-c2ccccc2)nc2ccccc2c1C(=O)N[C@@H](C)C1CCCCC1 | 177 to 180
CC(C)CCn1c(CN2C(=O)N(C3CC3)Cc3ccccc32)nc2cc(CN)ccc21 | 113
CC(C)(C)C1(Cl)Cc2cc(OCC(=O)O)c(Cl)c(Cl)c2C1=O (stereo unspecified) | 184 to 186
COC(=O)c1cc(OC)c2c(c1)OCO2 | 91
C(=C(c1ccccc1)c1ccccc1)c1ccc2c(c1)Sc1cc(C=C(c3ccccc3)c3ccccc3)ccc1N2c1ccccc1 | 232 to 237

SMILES | melting point [°C]
NS(=O)(=O)C=C(c1ccccc1)c1ccccc1 | 134 to 135
CC1CC(=O)Nc2ncc3c(c21)CCCN3 (stereo unspecified) | 309 to 311
O=C(Nc1ccc(C(=O)N2Cc3cccn3Cc3ccccc32)cc1)c1cccc(F)c1F | 252 to 258
CC(CCCCCCCCCCCCC(=O)O)CC(=O)O (stereo unspecified) | 77 to 78
CCOC(=O)C1=Cc2cccc(SC)c2OCC1 | 54 to 55
CC(=O)c1cc(-c2cccc(F)c2)c(=O)n2c1-c1sccc1CC2 | 109 to 110
COc1ccc2c(c1)CC(CC(C)=O)C2=O (racemic) | 73
COc1cc(OCC(O)CN2CCN(c3ccccc3NC(C)=O)CC2)cc(OC)c1OC (stereo unspecified) | 128 to 130
CCCNc1nc(C#N)c(C#N)nc1CC(C)C | 107 to 110
N#CCc1ccc(C2=CCCCC2)cc1 | 71 to 73
Cc1cc(-c2nc3ccccc3c(=O)n2-c2ccc(C(C)C)cc2)cc(C)c1OCCO | 160 to 162
N#Cc1ccc2c(c1)C(=O)c1ccccc1CC2 | 104 to 106
O=c1ccc(-c2ccco2)n[nH]1 | 183 to 184
COc1cccc2sc(-c3ccc(C(F)(F)F)cc3)nc12 | 104
CC(C)(C)OC(=O)c1c(N)sc2c1CCOC2CN1C(=O)c2ccccc2C1=O (stereo unspecified) | 227 to 230
CC(=O)OC1=CC(C)C2(C)C(=C1)CCC1C3CCC(=O)C3(C)CCC12 (stereo unspecified) | 104 to 107
CCn1cc(O)c(=O)cc1CO | 143 to 145
CC12CCC(O)CC1=CCC1C2CCC2(C)C(c3cccnc3)=CCC12 (stereo unspecified) | 214 to 218
Oc1ccc(CCCn2ccnc2S)cc1 | 185
Nc1c(-c2cc(Cl)ccc2O)c2cc(Cl)ccc2[nH]c1=O | 184 to 185
CN(C)CCCN1C(=O)C(NC(=O)Nc2ccccc2)C(=O)N(CC23CC4CC(CC(C4)C2)C3)c2ccccc21 (stereo unspecified) | 138 to 140
CCOc1ccc(C(=O)CBr)cc1C(=O)OC | 147 to 148
O=C(SCCC(=O)N1C(C(=O)NO)CSC1c1ccccc1O)c1ccccc1 (stereo unspecified) | 105 to 110
Cn1c(=O)c2c(ncn2CC(O)CN2CCN(C(=O)c3ccco3)CC2)n(C)c1=O (stereo unspecified) | 100
C=CCOc1cc(NC(=O)C2CCCCC2C(=O)OCC)c(F)cc1Cl (stereo unspecified) | 52 to 53
CCOc1cc2ncc(C#N)c(NCc3ccc(Cl)c(Cl)c3)c2cc1OCC | 163 to 165

SMILES | melting point [°C]
CCOCn1c(Nc2cc(C)cc(C)c2)c(CC)c(=O)[nH]c1=O | 175 to 176
Nc1ncc(C(F)(F)F)cc1[N+](=O)[O-] | 110 to 112
NC(=O)N(O)CCNC(=O)COc1cccc(Oc2ccccc2)c1 | 153 to 155
CC(C)(C)c1ccc(/C=N/OCCCOc2ccc(C(=O)O)c(NC(=O)c3ccccc3C(F)(F)F)c2)cc1 | 121 to 122
Cc1nnc(NC(=O)c2sccc2S(=O)(=O)Nc2onc(C)c2Cl)s1 | 192 to 194
CC(C)n1c(=Nc2ccccc2)sc2ncccc2c1=O | 85 to 86
COCCOCCOCC(=O)Nc1c(I)c(N)c(I)c(C(=O)O)c1I | 177 to 178
CCc1nc2c(N)nc3cc(CCNS(C)(=O)=O)ccc3c2n1CC(C)(C)O | 149 to 152
CNC(=O)c1ccccc1-c1cc(-c2ccccc2)on1 | 159 to 160
NNc1ccc2c(c1)CCNC2=O | 158 to 160
CCN(CCNC(=O)Nc1cc(Cl)ccc1CCc1cc(C(C)(C)C)c(O)c(C(C)(C)C)c1)Cc1ccccc1 | 132 to 133
O=C(O)Cc1ccc(OCCNC(=O)C2Cc3ccccc3N2S(=O)(=O)c2ccc(-c3ccc(F)cc3)c(C(F)(F)F)c2)cc1 (stereo unspecified) | 92
CN(C)C(=O)c1cn(Cc2ccccc2)c(=O)c2c1c1cc(F)ccc1n2C | 192 to 193
CCSNc1c(C#N)c(C)nn1-c1c(Cl)cc(C(F)(F)F)cc1Cl | 160 to 161
CC1(C)CC(=O)OC1c1ccc(Cl)c([N+](=O)[O-])c1 (stereo unspecified) | 134 to 136
CCOC(=O)C=Cc1ccc(OC)nc1 | 49 to 52
COC(=O)c1c(S(N)(=O)=O)ccn1C | 105 to 107
NC(=O)c1cc(-c2ccnc(Nc3cccc(C(F)(F)F)c3)n2)ccn1 | 240 to 242
COc1nc(C)cnc1N(C(=O)OCC(C)C)S(=O)(=O)c1cccnc1-c1ccc(C)cc1 | 143 to 145
CC=NNC1=NCCc2ccccc21 | 152 to 154
CC(C)(COc1ccc(O)c(C(N)=O)c1)NCC(O)c1ccccc1 (stereo unspecified) | 121 to 123
CN1CCCC1=NC(=O)Nc1cc(Cl)ccc1Cl | 148 to 150
COc1cc(CC(=O)O)cc(OCCCc2cn(-c3ccc(C(F)(F)F)cn3)nc2C(C)C)c1 | 109 to 110
